We go through six molecules from publication PMC1977984 (British Journal of Cancer, 1992).

Series [1] has as its system drug resistant variant of the Ridgway osteogenic sarcoma. Details: method as in Merry et al., 1991. Particulars: in vivo model; ref Merry et al., 1991; cited from earlier work.
The conditions of series [2]: cited from earlier work.
The subject of a further series is human BRO melanoma cells. Details: method as in Lincke et al., 1990. The settings on record: parental BRO cell line; ref Lincke et al., 1990; read-out: IC50 for etoposide; cited from earlier work.
For another series, the system named is S1 cell line (SW-1573). Description: cells. The settings on record: for Enhancement: S1, IC50 etoposide alone divided by IC50 with MNTC tamoxifen. The source says:
(§1) Br. J. Cancer (1992), 66, 833-839 ? […] Clinical effects and in vitro assessment in p-glycoprotein expressing cell lines N.S.A. Stuart', P. Philip', A.L. Harris', K. Tonkin', S. Houlbrook2, J. Kirk2, E.A. Lien3 & J. Carmichael' 'ICRF Clinical Oncology Unit, Churchill Hospital, Oxford OX3 7LJ; 2MRC Radiobiology Unit, Chilton, Didcot, Oxon; 3Department of Pharmacology and Toxicology, University of Bergen, Bergen, Norway. […] Cytotoxic drug resistance frequently affects a wide range of cytotoxic agents. It is commonly inherent, although it may also be acquired after initial response to cytotoxic drugs. Cell lines exposed in vitro to one cytotoxic drug may also become resistant to a range of structurally and functionally diverse agents. This multidrug resistant (MDR) phenotype is associ- ated with the presence of a 170 kd membrane glycoprotein, the P-glycoprotein (Pgp) (Juliano et al., 1976; Kartner et al., 1983; Riordan et al., 1985) which acts as an energy depen- dent efflux pump (Skovsgaard, 1978). […] Unfor- tunately many cause unacceptable toxicity at levels below those needed to modulate resistance and have therefore not been useful clinically (Ozols et al., 1987). Some encouraging results have however been reported in lymphoid malignan- cies. […] It is widely used in the treatment of breast cancer at doses of 20-40mgday-' and at such doses produces serum levels around 0.5 JiM (Adam et al., 1980; Fabian et al., 1980; Lien et al., 1989). […] Etoposide (VP16-213, Vepesid) is an epipodophyllotoxin derived cytotoxic drug which interferes with the action of the nuclear enzyme topoisomerase II producing lethal single and double stranded DNA breaks (Chen et al., 1984). It has activity in a number of solid tumours and resistance to it is part of the typical MDR phenotype (Endicott et al., 1989). […] The study therefore included patients with a range of relapsed and chemoresistant tumours. […] Patients had ECOG performance scores of 2 or better, had normal renal and hepatic function and had normal peripheral blood counts. […] Correspondence: N.S. Stuart. Received 13 March 1992; and in revised form 8 July 1992. 'PI Macmillan Press Ltd., 1992 Br. J. Cancer (1992), 66, 833-839 834 N.S.A. STUART et al. No formal compliance check was conducted but patients were asked specifically whether they had difficulties taking the correct number of tablets. Oral etoposide was given at a dose of 300mgday-' (150mg two times day-') for the first course. Patients who remained myelosuppressed on day 21 had the dose of etoposide reduced to 200 mg day-' for subse- quent courses. In those who had no significant myelosuppres- sion the dose of etoposide was increased to 400 mg day-'. […] Blood samples were centrifuged and the serum removed and stored at -20?C prior to measurement. […] The methods used have been published previously (Lien et al., 1989; 1987). […] The drugs were detected by being converted to fluorophors by subjecting the effluent of the column to ultra-violet light while passing through a quartz tube. The identity of the analyses was confirmed by liquid chromatography/mass spec- trometry using an on-line mass spectrometer connected to the analytical column (Lien et al., 1988). Serum levels in different patient populations were compared using the Mann-Whitney U-test. Cells and culture conditions Three pairs of cell lines were assessed. Each comprised a wild-type parental cell line and a P-glycoprotein expressing daughter line. The wild-type MCF-7 cell line was derived from a human breast cancer (Soule et al., 1973) while the CHO-KI cell line was derived from Chinese hamster ovaries (CHO).

For series [3], the system named is MCF-7 adrr cell line. Description: cells.
Excerpt: as §1

The test system of a further series is MCF-7 wt cell line. Briefly: cells.
Excerpt: as §1

The test system of series [4] is CHO-KI adrr cell line. The settings on record: for Enhancement: CHO-KI adrr, IC50 etoposide alone divided by IC50 with MNTC tamoxifen.
Excerpt: as §1

The subject of a further series is S1/1.1 cell line. Particulars: for Enhancement: S1/1.1, IC50 etoposide alone divided by IC50 with MNTC tamoxifen.
Excerpt: as §1

Excerpt in series [5]: as §1
In series [6] the test system is P388/ADR murine leukaemia line. Details: method as in Ramu et al., 1984. The settings on record: ref Ramu et al., 1984; cited from earlier work.
In series [7] the test system is MCF-7 adrr cell line. On the set-up: method as in Foster et al., 1988. Particulars: ref Foster et al., 1988; cited from earlier work.
In series [8] the test system is CHO-KI adrr cell line. On the set-up: method as in Chatterjee et al., 1990b. The settings on record: dox resistant CHO-KI adrr line; ref Chatterjee et al., 1990b; cited from earlier work.
Series [9] deals with CHO-KI cell line. The settings on record: IC50 etoposide alone divided by IC50 with MNTC tamoxifen.
Excerpt: as §1

Series [10] deals with multidrug resistance in vitro. On the set-up: method as in earlier work. Particulars: ref Chatterjee et al., 1990b; Foster et al., 1988; Ramu et al., 1984; cited from earlier work.
Series [11] relates to CHO-KI cell line. Details: method as in Chatterjee et al., 1990b. The settings on record: parental CHO-KI line; ref Chatterjee et al., 1990b; cited from earlier work.
Series [12] relates to Chinese hamster lung (DC3F/ADX) and breast cancer (MCF-7 adrr) cell lines. On the set-up: method as in Politi et al., 1990. The settings on record: multidrug resistant mutants; ref Politi et al., 1990; cited from earlier work.
[13] abbreviates: Homo sapiens, MCF7, 96 h, read-out: IC50 etoposide.

Molecules are shown by their SMILES. Like-named read-outs stand apart in the source and are kept apart here. Starred links: 1 amine or outer side, 2 acyl side, 3 side chain; linkers in the order of their positions; H or OH if unused. Positions of bridges follow the written chain, without caps; N, C: chain ends. Non-standard residues stand in square brackets, D forms with d. Residues, ends and D or L forms follow the SMILES beside them. Chains are numbered I, II in the order given. Actinocin(9to1) = Cc1c2oc3c(C)ccc(C(=O)[*:1])c3nc-2c(C(=O)[*:2])c(N)c1=O; NMeV = CN[C@H](C(=O)O)C(C)C; Sar = CNCC(=O)O

Take `Cc1c2oc3c(C)ccc(C(=O)N[C@@H]4C(=O)N[C@H](C(C)C)C(=O)N5CCC[C@H]5C(=O)N(C)CC(=O)N(C)[C@@H](C(C)C)C(=O)O[C@@H]4C)c3nc-2c(C(=O)N[C@@H]2C(=O)N[C@H](C(C)C)C(=O)N3CCC[C@H]3C(=O)N(C)CC(=O)N(C)[C@@H](C(C)C)C(=O)O[C@@H]2C)c(N)c1=O` [actinomycin- D, actinomycin-D] (I: T[dV]P[Sar][NMeV] / II: T[dV]P[Sar][NMeV]; ester I:1-I:C, II:1-II:C; linker I:N-II:N via Actinocin(9to1)): the “Resistance of the drug resistant variant” value in [1] is given as 1.5 fold.

Take `CC/C(=C(\c1ccccc1)c1ccc(OCCN)cc1)c1ccccc1` [didesmethyltamoxifen]: in [2] (in vivo), the “Levels lower than those of the parent compound” value was 60-85%.

What is called IC50 is the concentration needed to halve the response being measured. Regarding `COc1cc([C@@H]2c3cc4c(cc3[C@@H](O[C@@H]3O[C@@H]5CO[C@@H](C)O[C@H]5[C@H](O)[C@H]3O)[C@H]3COC(=O)[C@H]23)OCO4)cc(OC)c1O` [etoposide], the IC50 in the series with human BRO melanoma cells was 16 nM; in the series on S1 cell line (SW-1573) (Homo sapiens, SW1573, 96 h, read-out: IC50 etoposide) it was 3000 nM; in the series on MCF-7 adrr cell line [3] (setting [13]) it was 60 µM; with MCF-7 wt cell line (setting [13]), 950 nM. The “Resistance to etoposide in comparison to the MCF-7 wild type cell line” value in the series with MCF-7 adrr cell line [3] (MCF-7 adrr versus MCF-7 wt) is given as 60 fold. In the series with CHO-KI adrr cell line [4] (CHO-KI adrr versus CHO-KI), the “More resistant than its parental line” value came to 5 fold. Moreover, in the series on S1/1.1 cell line (S1/1.1 versus S1, P<0.01), the “More sensitive than the parental line” value was 2 fold. Besides, the Thrombocytopenia result in series [5] (human, in vivo, po) is reported as “No significant thrombocytopenia”. Also, the “Resistance of the drug resistant variant” value in series [1] is given as 5 fold.

Consider `CC/C(=C(\c1ccccc1)c1ccc(OCCN(C)C)cc1)c1ccccc1` [tamoxifen], for which, in series [6], the “Reversal of adriamycin resistance” value is on record as “partially reversed the resistance”. Moreover, the Enhancement is reported as 0.9 in the series on S1 cell line (SW-1573); “no significant effect” in the series with S1 cell line (SW-1573) (listed as Tamoxifen); 0.7 with MCF-7 adrr cell line [3] (MCF-7 adrr, IC50 etoposide alone divided by IC50 with MNTC tamoxifen); 1.2 in the series on MCF-7 wt cell line (MCF-7 wt, IC50 etoposide alone divided by IC50 with MNTC tamoxifen); 0.85 with CHO-KI adrr cell line [4]; “no significant effect” in the series on CHO-KI adrr cell line [4] (listed as Tamoxifen). Moreover, the Enhancement in the series on S1/1.1 cell line is 0.9; with S1/1.1 cell line (listed as Tamoxifen), “no significant effect”; in the series with CHO-KI cell line [9] it was 1.0; with CHO-KI cell line [9] (listed as Tamoxifen) it was “no significant effect”. The “Reversal of adriamycin and vinblastine resistance” value in the series on MCF-7 adrr cell line [7] was “partial reversal”. Moreover, the “Enhancement of dox cytotoxicity” value was 16 fold with CHO-KI adrr cell line [8] and 4.8 fold in the series with CHO-KI cell line [11]. Also, the “Neurological symptoms: Severe/v. severe (number of patients)” value in series [5] (tamoxifen 480 mg day-1, total 10 patients) is 0; in series [5] (tamoxifen 720 mg day-1, total 16 patients), 1 (6%). Further, the “Levels sufficient to modulate multidrug resistance in vitro” value in series [10] is 3-10 JAM. In addition, the Serum levels is 6.1 µM in series [2] (after 9 days on 260 mg of tamoxifen twice a day, ref Trump et al., 1991); “around 4 microM” in series [2] (continuing tamoxifen 480 mg day-1 indefinitely, ref Stuart et al., 1991); “around 0.5 microM” in series [2] (tamoxifen doses of 20-40 mg day-1 in breast cancer, ref Adam et al., 1980, Fabian et al., Lien et al., 1989). Moreover, the “Steady state serum levels” value in [2] (standard dose tamoxifen 20-40 mg day-1, after 4 weeks, ref Adam et al., 1980, Fabian et al., 1980, Lien et al., 1989) is 0.25 to 1.0 µM. Besides, the “Serum levels, plateau” value in series [2] (tamoxifen 160 mg three times a day, after 10 days, ref Stuart et al., 1991) is reported as “around 4 microM”.

Turning to `COc1ccc(CCN(C)CCCC(C#N)(c2ccc(OC)c(OC)c2)C(C)C)cc1OC` (stereo not drawn) [verapamil], in series [12], the “Effect on etoposide resistance” value is 3-4 fold and the “Enhancement (reversal of resistance to vincristine)” value was 11-125 fold.

Take `CC[C@]1(O)C[C@H]2CN(CCc3c([nH]c4ccccc34)[C@@](C(=O)OC)(c3cc4c(cc3OC)N(C=O)[C@H]3[C@@](O)(C(=O)OC)[C@H](OC(C)=O)[C@]5(CC)C=CCN6CC[C@]43[C@@H]65)C2)C1` [vincristine]: the “Resistance of the drug resistant variant” value in series [1] is reported as 3.5 fold.
